These results are taken from patent US9677094B2, “Process of producing a fermentation product” (NOVOZYMES A/S, priority 2011, dated 2017).

Test [1] deals with streptozotocin-induced diabetic and Zucker obese rats. Particulars: cited from earlier work.
Test [2] concerns glycation reactions and the formation of advanced glycation end products (AGEs). The following applies: cited from earlier work.
The test system of test [3] is initial stages of the Maillard reaction. Particulars: conjugates of beta-lactoglobulin with galactose and tagatose; cited from earlier work.
For a further test, the system named is Fermentis Red Star yeast. In words: Ethanol yield in fermentation (SSF) of liquefied corn mash, HPLC. It counts as cell-based. Particulars: for EtOH: corn mash 32% DS. As for the experimental part: Pyridoxamine (Sigma #P9380) was evaluated for its ability to increase ethanol yields from laboratory-made corn mash when added at the time of liquefaction or at the beginning of fermentation.
Liquefied mashes were made using corn and backset obtained from a commercial ethanol plant in the Midwestern United States (Corn LP, Goldfield, Iowa). All mashes contained 32% Dry Solids (DS) and were liquefied at a pH of 5.8 for 120 minutes in a water bath at 85° C., using the alpha-amylase product Liquozyme SC DS (Novozymes) at a dose of 0.02% w/w of corn. Experimental mashes were treated with pyridoxamine at doses of 10 micrograms/g DS and 50 micrograms/g DS of pyridoxamine in 110 g mash. During liquefaction, the mashes were shaken vigorously every 2 minutes for the first 20 minutes and again at 30 minute intervals until the total liquefaction time equaled 2 hours. All mashes were then frozen overnight.
To each thawed mash, urea was added to a final concentration of 1000 ppm, and penicillin was added to a final concentration of 3 ppm. To test the effects of pyridoxamine in simultaneous saccharification and fermentation (SSF), separate aliquots of liquefied mash were dosed with 10 micrograms/g DS and 50 micrograms/g DS of pyridoxamine, respectively. The mashes were fermented as follows:
For fermentation, between 4 and 5 grams of each mash was added to 6 pre-weighed tubes per treatment. […] One hundred microliters of Fermentis Red Star yeast (5.5 g yeast in 100 mL tap water incubated at 32° C. for 30 minutes) was added to each tube, and the gluocoamylase product Spirizyme Ultra™ (Novozymes) was added to each tube to achieve a dose of 0.5 AGU/g DS.
After 24 hours, one replicate from each mash was sacrificed for HPLC analysis using 50 microliters of 40% v/v H2SO4. The tubes were centrifuged at 1500×g for 10 minutes, and the supernatants were filtered using Whatman syringe filters with 0.45 micron membranes, then diluted 1:5 for HPLC analysis. The remaining samples were sacrificed after 54 hours in the same manner but were subjected to HPLC analysis without dilution. Ethanol and oligosaccharide concentrations were measured by HPLC using an HPX-87H column (Bio-Rad) heated to 65° C. with a mobile phase of 5 mM sulfuric acid at a flow rate of 0.6 ml/min, with refractive index detection at 50° C.

Test [4] concerns advanced lipoxidation end-products on protein. Particulars: during lipid peroxidation reactions; cited from earlier work.

Take `Cc1ncc(CO)c(CN)c1O` [Pyridoxamine]: the development of nephropathy entry in test [1] (both animal models) is “protects against the development of nephropathy”. For the same molecule, the lipid-lowering effect result in test [1] (streptozotocin-induced diabetic and Zucker obese rats) is reported as “strong lipid-lowering effect”. Further, the “inhibition of glycation reactions and AGE formation” value in test [2] is reported as “can inhibit”. Besides, the “effect on the initial stages of the Maillard reaction” value in test [3] is “inhibitory effect”. Besides, the “ethanol yield versus control” value in the test on Fermentis Red Star yeast (addition at the beginning of SSF (after liquefaction)) is given as “did not result in an increase in ethanol yield”; in the test on Fermentis Red Star yeast (addition at the start of corn mash liquefaction, three of the four results (both doses of 10 and one dose of 50 micrograms/g DS)) it was “statistically significant increase in ethanol yield”. The EtOH is recorded as 12.19 w/v % with Fermentis Red Star yeast (experiment 1, dose 10 micrograms/g DS, addition point Liq (liquefaction)); 11.89 w/v % with Fermentis Red Star yeast (experiment 1, dose 10 micrograms/g DS, addition point SSF); 12.23 w/v % in the test with Fermentis Red Star yeast (experiment 1, dose 50 micrograms/g DS, addition point Liq (liquefaction)); 11.79 w/v % in the test with Fermentis Red Star yeast (experiment 1, dose 50 micrograms/g DS, addition point SSF); 12.01 w/v % in the test with Fermentis Red Star yeast (experiment 2, dose 10 micrograms/g DS, addition point Liq (liquefaction)); 11.75 w/v % in the test on Fermentis Red Star yeast (experiment 2, dose 10 micrograms/g DS, addition point SSF). The EtOH in the test on Fermentis Red Star yeast (experiment 2, dose 50 micrograms/g DS, addition point Liq (liquefaction)) is given as 11.86 w/v %; in the test with Fermentis Red Star yeast (experiment 2, dose 50 micrograms/g DS, addition point SSF), 11.75 w/v %. Besides, the “formation of advanced lipoxidation end-products on protein” value in test [4] was “inhibits”.
